Patent US5075287A, “Muramyl peptide derivatives and immunoregulating compositions containing them” (priority 1989, dated 1991)
Read-outs that look alike come from different tables or passages of the source.

Legend:
[1] = system: L-1210 mouse leukemia cells; assay: Activation of macrophages (growth inhibition of tumor cells by intraperitoneal macrophages of treated mice, MTT assay); type: cell-based; settings: macrophages taken 3 days after i.p. 0.2 ml of 500 μg/ml, macrophage:L-1210 20:1, 72 hours
Protocol: A compound of the present invention was dissolved in lipidmicrosphere to obtain a solution in a concentration of 500μg/ml, and 0.2 ml of such solution was intraperitoneally administered to each mouse in one group consisting of seven female CDF1 mice. Intraperitoneal macrophages obtained three days after the administration and L-1210 mouse leukemia cells were mixed in the ratio of cell numbers of 20:1, respectively. Two hundred μl of the mixture was placed in each well of one sheet of 96 well microtiter plate. After 72 hours, the increase of the cell number in each well was determined by a MTT assay method. The ratio of the cell number for the mixture of the L-1210 cells and the macrophage relative to the cell number for the L-1210 cells only(growth inhibitory ratio) was determined, and the results are shown in Table 3.

[2] = system: hepatitis B virus surface antigen (HBs); assay: Hepatitis-vaccine enhancing activity (adjuvant activity): anti-HBs IgG in mouse serum by ELISA; type: in vivo, female CDF1 mice; settings: Experiment 1, 5000-fold dilution
Protocol: A compound of the present invention was dissolved in lipidmicrosphere (1 mg/ml). On the other hand, a solution of hepatitis B virus surface antigen (HBs) in physiological saline was prepared (50 μg/ml). The above solutions in equal amounts were mixed to prepare a test solution. A control solution was prepared by the exclusion of the compound of the present invention from said test solution. A mixture of a suspension of aluminium hydroxide gel in physiological saline (1 mg/ml) and said hepatitis vaccine preparation in equal amounts was prepared as another control solution. The test solution (0.2 ml) was intraperitoneally administered to each mouse in one group consisting of seven female CDF1 mice.
Blood samples were collected from the fundus ocluli vein of each mouse every week after the administration and then centrifuged to obtain serums. Three weeks after the administration, 0.2 ml of the test liquid was intraperitoneally administered again to each mouse for secondary stimulation. Then blood collecting was conducted every week to obtain serums after the application of the secondary stimulation, in the same manner as that described above.
The amount of the IgG antibodies against the hepatitis B virus surface antigens (HBs) in the serums thus obtained was determined with an ELISA method.

[3] = system: influenza HA vaccine (B/Nagasaki/1/87 strain); type: in vivo, female CDF1 mice; settings: Experiment 1, 5000-fold dilution
[4] = 1 W after i.p. administration, compound in lipidmicrosphere + HBs
[5] = 4 W (after secondary stimulation at 3 weeks)
[6] = 5 W (after secondary stimulation at 3 weeks)
[7] = 1 W after i.p. administration, compound in lipidmicrosphere + HA vaccine

SMILES | Growth inhibitory ratio of L-1210 mouse leukemia cells [1] | Anti-HBs IgG antibody level in serum (ELISA absorbance at 415 nm) [2, 4] | Anti-HBs IgG antibody level in serum (ELISA absorbance at 415 nm) ([2]; 2 W) | Anti-HBs IgG antibody level in serum (ELISA absorbance at 415 nm) ([2]; 3 W) | Anti-HBs IgG antibody level in serum (ELISA absorbance at 415 nm) [2, 5] | Anti-HBs IgG antibody level in serum (ELISA absorbance at 415 nm) [2, 6] | Anti HA serum antigen value (average value ± S.D.) [3, 7] | Anti HA serum antigen value (average value ± S.D.) ([3]; 2 W) | Anti HA serum antigen value (average value ± S.D.) ([3]; 3 W) | Anti HA serum antigen value (average value ± S.D.) [3, 5] | Anti HA serum antigen value (average value ± S.D.) [3, 6]
CCCCCCCCCCCCCCC(CCCCCCCCCCCCCC)C(=O)O[C@H]1O[C@H](COC(=O)CCCCCCCCC)[C@@H](O)[C@H](O[C@H](C)C(=O)N[C@@H](C)C(=O)N[C@H](CCC(=O)OC)C(N)=O)[C@H]1NC(C)=O [Example 5] | 57.8% | 0.001 ± 0.001 O.D 415 nm | 0.021 ± 0.001 O.D 415 nm | 0.048 ± 0.001 O.D 415 nm | 0.643 ± 0.013 O.D 415 nm | 0.490 ± 0.009 O.D 415 nm | 0 O.D 415 nm | 0.091 ± 0.002 O.D 415 nm | 0.377 ± 0.001 O.D 415 nm | 1.037 ± 0.027 O.D 415 nm | 1.068 ± 0.004 O.D 415 nm
CCCCCCCCCCCCCC(=O)O[C@H](CCCCCCCCCCC)CC(=O)O[C@H]1O[C@H](CO)[C@@H](O)[C@H](O[C@H](C)C(=O)N[C@@H](C)C(=O)N[C@H](CCC(=O)OC)C(N)=O)[C@H]1NC(C)=O [Example 3, N-[2-0-{2-Acetamido-2,3-dideoxy-1-0-((3R)-3-tetradecanoyloxytetradecanoyl)-α-D-glucopyranos-3-yl}-D-lactoyl]-L-alanyl-D-isoglutamine methylester] | 42.6% | 0 O.D 415 nm | 0.027 ± 0.001 O.D 415 nm | 0.064 ± 0.003 O.D 415 nm | 0.631 ± 0.006 O.D 415 nm | 0.692 ± 0.009 O.D 415 nm | 0.009 ± 0.000 O.D 415 nm | 0.182 ± 0.003 O.D 415 nm | 0.292 ± 0.004 O.D 415 nm | 0.122 ± 0.020 O.D 415 nm | 1.140 ± 0.013 O.D 415 nm
CCCCCCCCCCCCCCC(CCCCCCCCCCCCCC)C(=O)S[C@@H]1O[C@H](COC(=O)CCCCCCCCC)[C@@H](O)[C@H](O[C@H](C)C(=O)N[C@@H](C)C(=O)N[C@H](CCC(=O)OC)C(N)=O)[C@H]1NC(C)=O [Example 8, N-[2-0-{2-Acetamido-2,3-dideoxy-6-0-decanoyl-1-S-(2-tetradecylhexadecanoyl)-1-thio-β-D-glucopyranos-3--yl}-D-lactoyl]-L-alanyl-D-isoglutamine methylester] | 57.9% | 0 O.D 415 nm | 0.067 ± 0.003 O.D 415 nm | 0.114 ± 0.002 O.D 415 nm | 0.897 ± 0.012 O.D 415 nm | 0.845 ± 0.016 O.D 415 nm | 0.001 ± 0.001 O.D 415 nm | 0.105 ± 0.005 O.D 415 nm | 0.246 ± 0.004 O.D 415 nm | 1.246 ± 0.019 O.D 415 nm | 1.267 ± 0.023 O.D 415 nm
